# Test results as given in the SangsterLogP compilation.
# Assay: not given
row,SMILES,logP
1,CCCCCF,2.33
2,CCCBr,2.1
3,CCOC(=O)CC,1.21

# Assay: method code SF-AS, from DOI: 10.1021/jo01283a049
row,SMILES,logP
1,CC12CCC(C(=O)C1=O)C2(C)C (stereo not given),1.52
2,CNC(=S)Nc1ccccc1,0.85
3,CCSCC,1.95
4,c1ccc2cnccc2c1,2.08
5,CN(C(N)=S)c1ccccc1,0.85
6,OCc1ccc2c(c1)OCO2,1.05

# Assay: method code SF-CR, from DOI: 10.1021/jo01283a049
row,SMILES,logP
1,CCCC(N)=O,-0.21
